Values of other authors in PubChem BioAssay AID1259409 (Chemical Carcinogenesis Research Information System (CCRIS), 2018).

System: rodent chemically induced tumor inhibition, incidence and multiplicity
Test: CCRIS tumor inhibitor studies

## N[C@@H](CS)C(=O)O
Carcinogen: 7,12-DIMETHYLBENZ[A]ANTHRACENE, 57-97-6, Dose [Inhibitor]: 0.03 NMOL/G DIET DAILY FOR 17 WK STARTING 1 WK PRIOR TO CARCINOGEN TREATMENT AND CONTINUING THROUGH THE END OF THE STUDY, Route [Inhibitor]: ORAL, Species: RAT, Strain/Sex: SPRAGUE-DAWLEY/FEMALE, Target Tissue: Type of Lesion: MAMMARY GLAND: TUMOR, Dose [Carcinogen]: 12 MG IN 1 ML OLIVE OIL ONCE, Promoter: NONE USED
  tumour outcome (control, treated, inhibition, significance): 59%, 61%, -3%, not significant
Carcinogen: TRANS-5-AMINO-3-[2-(5-NITRO-2-FURYL)VINYL]-1,2,4-OXADIAZOLE;SQL8506, 28754-68-9, Carcinogen: TRANS-5-AMINO-3-[2-(5-NITRO-2-FURYL)VINYL]-1,2,4-OXADIAZOLE;SQL8506, 28754-68-9, Dose [Inhibitor]: 100 MG/KG 16 HR BEFORE THE 1ST CARCINOGEN DOSE FOLLOWED BY ADDITIONAL DOSES IMMEDIATELY BEFORE EACH DOSE OF CARCINOGEN (, Route [Inhibitor]: INTRAPERITONEAL, Species: MOUSE, Strain/Sex: CD-1/FEMALE, Target Tissue: Type of Lesion: HEMATOPOIETIC SYSTEM: MYELOID LEUKEMIA, Dose [Carcinogen]: 1 G/KG 2/D FOR 5 D EVERY 4 WK, Promoter: NONE USED
  tumour outcome (control, treated, inhibition, significance): 7/137 (5%), 1/32 (3%), 40%, not calculated
Carcinogen: TRANS-5-AMINO-3-[2-(5-NITRO-2-FURYL)VINYL]-1,2,4-OXADIAZOLE;SQL8506, 28754-68-9, Carcinogen: TRANS-5-AMINO-3-[2-(5-NITRO-2-FURYL)VINYL]-1,2,4-OXADIAZOLE;SQL8506, 28754-68-9, Dose [Inhibitor]: 100 MG/KG 16 HR BEFORE THE 1ST CARCINOGEN DOSE FOLLOWED BY ADDITIONAL DOSES IMMEDIATELY BEFORE EACH DOSE OF CARCINOGEN (, Route [Inhibitor]: INTRAPERITONEAL, Species: MOUSE, Strain/Sex: CD-1/FEMALE, Target Tissue: Type of Lesion: LYMPHOID TISSUE: NONTHYMIC LYMPHOMA, Dose [Carcinogen]: 1 G/KG 2/D FOR 5 D EVERY 4 WK, Promoter: NONE USED
  tumour outcome (control, treated, inhibition, significance): 8/137 (6%), 1/32 (3%), 50%, not calculated
Carcinogen: TRANS-5-AMINO-3-[2-(5-NITRO-2-FURYL)VINYL]-1,2,4-OXADIAZOLE;SQL8506, 28754-68-9, Carcinogen: TRANS-5-AMINO-3-[2-(5-NITRO-2-FURYL)VINYL]-1,2,4-OXADIAZOLE;SQL8506, 28754-68-9, Dose [Inhibitor]: 100 MG/KG 16 HR BEFORE THE 1ST CARCINOGEN DOSE FOLLOWED BY ADDITIONAL DOSES IMMEDIATELY BEFORE EACH DOSE OF CARCINOGEN (, Route [Inhibitor]: INTRAPERITONEAL, Species: MOUSE, Strain/Sex: CD-1/FEMALE, Target Tissue: Type of Lesion: LYMPHOID TISSUE: THYMIC LYMPHOMA, Dose [Carcinogen]: 1 G/KG 2/D FOR 5 D EVERY 4 WK, Promoter: NONE USED
  tumour outcome (control, treated, inhibition, significance): 22/137 (16%), 5/32 (16%), 0%, not calculated
Carcinogen: TRANS-5-AMINO-3-[2-(5-NITRO-2-FURYL)VINYL]-1,2,4-OXADIAZOLE;SQL8506, 28754-68-9, Carcinogen: TRANS-5-AMINO-3-[2-(5-NITRO-2-FURYL)VINYL]-1,2,4-OXADIAZOLE;SQL8506, 28754-68-9, Dose [Inhibitor]: 100 MG/KG 16 HR BEFORE THE 1ST CARCINOGEN DOSE FOLLOWED BY ADDITIONAL DOSES IMMEDIATELY BEFORE EACH DOSE OF CARCINOGEN (, Route [Inhibitor]: INTRAPERITONEAL, Species: MOUSE, Strain/Sex: CD-1/FEMALE, Target Tissue: Type of Lesion: STOMACH: SQUAMOUS CARCINOMA, Dose [Carcinogen]: 1 G/KG 2/D FOR 5 D EVERY 4 WK, Promoter: NONE USED
  tumour outcome (control, treated, inhibition, significance): 60/137 (44%), 9/32 (28%), 36%, not calculated

## CC1(C)[C@@H](O[C@H]2O[C@H](C(=O)O)[C@@H](O)[C@H](O)[C@H]2O[C@@H]2O[C@H](C(=O)O)[C@@H](O)[C@H](O)[C@H]2O)CC[C@]2(C)[C@H]3C(=O)C=C4[C@@H]5C[C@@](C)(C(=O)O)CC[C@]5(C)CC[C@@]4(C)[C@]3(C)CC[C@@H]12
Carcinogen: 7,12-DIMETHYLBENZ[A]ANTHRACENE, 57-97-6, Dose [Inhibitor]: 0, 0.05% IN DRINKING WATER BEGINNING 50 D PRIOR TO CARCINOGEN TREATMENT AND CONTINUING FOR THE DURATION OF STUDY (STUDY, Route [Inhibitor]: ORAL, Species: MOUSE, Strain/Sex: SENCAR/FEMALE, Target Tissue: Type of Lesion: SKIN: TUMOR, Dose [Carcinogen]: 40 NMOL IN 0.2 ML ACETONE ONCE, Promoter: 12-O-TETRADECANOYLPHORBOL-13-ACETATE, 16561-29-8
  tumour outcome (control, treated, inhibition, significance): 100%, 100%, 0%, not significant
Carcinogen: 7,12-DIMETHYLBENZ[A]ANTHRACENE, 57-97-6, Dose [Inhibitor]: 0, 0.05% IN DRINKING WATER FOR 50 D PRIOR TO CARCINOGEN TREATMENT (STUDY DURATION: 23 WK), Route [Inhibitor]: ORAL, Species: MOUSE, Strain/Sex: SENCAR/FEMALE, Target Tissue: Type of Lesion: SKIN: TUMOR, Dose [Carcinogen]: 40 NMOL IN 0.2 ML ACETONE ONCE, Promoter: 12-O-TETRADECANOYLPHORBOL-13-ACETATE, 16561-29-8
  tumour outcome (control, treated, inhibition, significance): 100%, 100%, 0%, not significant
Carcinogen: DIETHYLNITROSAMINE, 55-18-5, Dose [Inhibitor]: 0, 2 MG 3/WK FOR 32 WK BEGINNING 2 WK PRIOR TO CARCINOGEN TREATMENT (STUDY DURATION:32 WK), Route [Inhibitor]: INTRAMUSCULAR, Species: MOUSE, Strain/Sex: BALB/MALE, Target Tissue: Type of Lesion: LIVER :HEPATOCELLULAR CARCINOMA, Dose [Carcinogen]: 75 MG/KG 1/WK FOR 3 WK THEN 100 MG/KG 1/WK FOR 3 WK, Promoter: NONE USED
  tumour outcome (control, treated, inhibition, significance): 7/11 (64%), 3.14 (21%), 65%, p<0.05

## Cc1cccc(C(=O)/C=C/c2cccc(O)c2)c1
Carcinogen: 7,12-DIMETHYLBENZ[A]ANTHRACENE, 57-97-6, Dose [Inhibitor]: 0, 1.62 MICROMOLAR 2/WK FOR 18 WK APPLIED SIMULTANEOUSLY WITH PROMOTER DOSE (STUDY DURATION: 18 WK), Route [Inhibitor]: DERMAL, Species: MOUSE, Strain/Sex: ICR/FEMALE, Target Tissue: Type of Lesion: SKIN: TUMOR, Dose [Carcinogen]: 100 UG ONCE, Promoter: 12-O-TETRADECANOYLPHORBOL-13-ACETATE, 16561-29-8
  tumour outcome (control, treated, inhibition, significance): 90%, 20%, 78%, not calculated
